Measurements published in paper PMC12612973, “Inhibition of Human Amylin Aggregation: In Silico and In Vitro Studies” (ACS Omega, 2025).
Where “and” joins values, the source holds several entries; their conditions need not be identical. Equal entries are not always repeated.

What was measured:
human amylin (hIAPP) [1] = target: T1, human amylin (hIAPP) (Homo sapiens, UniProt P10997); assay: Thioflavin T (ThT) fluorescence assay of amylin aggregation; type: biochemical; details: for ThT inhibition % (mean ± SEM): compound 10 μM, amylin 15 μM, 36 h incubation, 3 trials; for inhibition at 10 µM: read-out: ThT inhibition % (mean ± SEM), compound 10 μM, amylin 15 μM, 36 h incubation, 3 trials
T1 construct: purchased Bachem USA
T1 sequence (P10997 34-70 limits assumed): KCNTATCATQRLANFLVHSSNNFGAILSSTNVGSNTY
Protocol: (§1) A stock solution of amylin (1 mM) (purchased from Bachem USA), peptide sequence: […] amide (with disulfide bond between Cys2 and Cys7), was prepared in 100% hexafluoroisopropyl alcohol (HFIP) (purchased from Sigma-Aldrich) and stored at −20 °C. , Aliquots of amylin peptide were filtered through a 0.22 μm filter from the stock solution and freeze-dried. For kinetic experiments, 15 μM of amylin was prepared in 50 mM Tris-HCl buffer (pH 7.4), as investigated in previous studies by Chaari et al., , Samples of amylin were prepared in the presence or absence of inhibitors. Each compound was dissolved in DMSO and further diluted with the buffer used to solubilize the amylin. The final mixture contained 15 μM amylin, 10 μM of the test compound, 2% DMSO or 15 μM amylin, and 2% DMSO without the compound (negative control). Also 15 μM amylin, 10 μM of oleuropein aglycone and 2% DMSO was used as a positive control. The prepared solutions were incubated under physiological conditions (pH 7.4 and 37 °C) for amylin aggregation. Samples were incubated for 36 h to test for amylin aggregation, and measurements were conducted at different time points.
Amylin aggregation was monitored by characteristic changes in Thioflavin T (ThT) fluorescence intensity. A ThT stock solution (15 μM) was prepared in deionized water at pH 7.4. The amylin samples were mixed with the ThT solution and allowed to incubate. ThT fluorescence was measured using the PerkinElmer model LS 55 fluorescence spectrophotometer (PerkinElmer, USA), with an excitation wavelength of 440 nm and an emission wavelength of 480 nm. ,− The emission and excitation slits were set to 5 nm, and a 1 cm cuvette was used for all experiments. Nonspecific background fluorescence was subtracted from the samples using appropriate blanks in the absence of proteins. Each experiment was performed in triplicate.

human amylin (hIAPP) [2] = target: T1, human amylin (hIAPP); assay: Kinetic analysis of amylin aggregation (ThT, two-step autocatalytic aggregation model); type: biochemical; details: mean ± S.D.; for t 0 (time point when the aggregation starts): 10% of highest ThT fluorescence; for t 1/2 (aggregation halftime): 50% of highest ThT fluorescence; for t 1 (aggregation endpoint): 90% of highest ThT fluorescence; for k / k e (elongation constant) / k n (nucleation constant) / ρ (ratio of kn to k): ThT data, autocatalytic aggregation model
Protocol: Kinetic analysis was performed according to the model of autocatalytic aggregation. According to Sabaté et al., aggregation is a two-step process, comprising nucleation (described by the k n constant) and fibrillation phases (represented by the k e constant). Two constants (k n and k e) are calculated using the eq : 5 f=ρ{e^[(1+ρ)kt]−1}/{1+ρe^[(1+ρ)kt]} where k = k e a (where a represents the initial concentration of the aggregating peptide), f stands for a fraction of the fibrillar form in the system, and ρ denotes the dimensionless ratio of k n to k. The parameters k and ρ were calculated first, then k n and k e.
Data were normalized as a fraction of the highest fluorescence from the three trials and fitted into the model of autocatalytic aggregation. The same procedure was repeated for the remaining trials. The second calculation aimed to find the time parameters of the aggregation process: t 0 (time point when the aggregation starts), t 1/2 (aggregation halftime), and t 1 (aggregation endpoint). t 0, t 1/2, and t 1 were calculated as 10%, 50%, and 90% of the highest fluorescence measurements from the three trials, respectively. All calculations were performed using GraphPad Prism 9.5.1, Statistica 13.3.721.1, and Microsoft Excel 2304.

human amylin (hIAPP) [3] = target: T1, human amylin (hIAPP); assay: Thioflavin T (ThT) fluorescence assay of amylin aggregation; type: biochemical; details: read-out: IC50 of amylin aggregation inhibition
human amylin (hIAPP) [4] = target: T1, human amylin (hIAPP); assay: Dynamic light scattering (DLS) assay of amylin aggregation; type: biochemical; details: 36 h incubation; for inhibition at 10 µM: compound 10 μM, amylin 15 μM, 3 trials, read-out: DLS inhibition % (mean ± SEM)
Protocol: as §1
DLS (Zetasizer, Malvern) was used at a wavelength of 633 nm to measure the average diffusion coefficient distribution of amylin particles and the aggregation percentage. Samples were diluted 10-fold, and 50 μL was placed into a 96-well plate. The total light scattering intensity at a 90° angle was collected using a 10 s averaging acquisition time. Particle translational diffusion coefficients were calculated from autocorrelated light intensity data (usually 30–40 points) and converted to the hydrodynamic radius (R h) using the Stokes–Einstein equation. A distribution plot of intensity versus R h was calculated using the Sedfit 9.3 analysis software, and intensity-weighted mean R h values were obtained from each peak.

Pancreatic INS-1E cells = assay: MTT cytotoxicity assay of amylin aggregates aged with or without inhibitors; type: cell-based
Protocol: In this study, we utilized Pancreatic INS-1E cells (Department of Cell Physiology and Metabolism, University Medical Center, Switzerland) due to their close physiological similarity to native β-cells, making them highly relevant to our experimental objectives. Pancreatic INS-1E cells were grown in RPMI 1640 medium, supplemented with 2 mM glutamine, 5% fetal calf serum, 10 mM HEPES (pH 7.4), 1 mM sodium pyruvate, 50 μM 2-mercaptoethanol, 100 units/mL penicillin, and 0.1 mg/mL streptomycin. The culturing environment was maintained at 37 °C, 5% CO2, pH 7.4.
The toxicity of human amylin aggregates in the presence or absence of different compounds in the presence of 2% DMSO was assessed by the 3-(4,5-dimethylthiazol-2-yl)-2,5-diphenyltetrazolium bromide (MTT) reduction assay. The cells were cultured and then seeded into 96-well plates and grown for 24 h prior to exposure to different intermediates of amylin or a mixture of amylin with the MTDLs. The final amylin concentration within the culture medium was 5 μM. Cell viability was expressed as the percentage of MTT reduction, using cells treated with the same buffer volume as a reference (100% MTT reduction). The values (averages ± S.D.) were obtained from three independent experiments.

C/C=C1/C(O)OC=C(C(=O)OC)[C@H]1CC(=O)OCCc1ccc(O)c(O)c1 (mixture of isomers) [Oleuropein aglycone, reference compound]
ThT inhibition % (mean ± SEM) (human amylin (hIAPP) [1]): 82.3 ± 2.0%
t 0 (time point when the aggregation starts) (human amylin (hIAPP) [2]): 10.76 ± 0.25 h
t 1/2 (aggregation halftime) (human amylin (hIAPP) [2]): 19.67 ± 0.31 h
t 1 (aggregation endpoint) (human amylin (hIAPP) [2]): 28.83 ± 0.30 h
k (human amylin (hIAPP) [2]): 0.2366 ± 0.0075 h^–1
k e (elongation constant) (human amylin (hIAPP) [2]): 15773 ± 650 M^–1h^–1
k n (nucleation constant) (human amylin (hIAPP) [2]): 0.0022 ± 0.0005 h^–1
ρ (ratio of kn to k) (human amylin (hIAPP) [2]): 0.0093 ± 0.0002
k e (elongation constant) (human amylin (hIAPP) [2]; listed as oleuropein aglycone): 15773 M^–1h^–1
IC50 (human amylin (hIAPP) [3]): 1 µM

OC(CCNCCC(c1ccccc1)c1ccccc1)CNCc1ccccc1 (stereo not drawn) [Compound 20]
inhibition at 10 µM (human amylin (hIAPP) [1]): 12.6 ± 0.4%
inhibition at 10 µM (human amylin (hIAPP) [4]): 20.4 ± 2.5%

OC(CCNCC(c1ccccc1)c1ccccc1)CNCc1ccccc1 (stereo not drawn) [Compound 19]
inhibition at 10 µM (human amylin (hIAPP) [1]): 33.7 ± 1.1%
inhibition at 10 µM (human amylin (hIAPP) [4]): 27.5 ± 3%

CC(C)(C)c1cccc(CNCC(O)CNCC(c2ccccc2)c2ccccc2)c1 (stereo not drawn) [Compound 17]
ThT inhibition % (mean ± SEM) (human amylin (hIAPP) [1]): 88.1 ± 0.9%
inhibition at 10 µM (human amylin (hIAPP) [1]): > 88%
inhibition at 10 µM (human amylin (hIAPP) [4]): 99 ± 6.5%
t 0 (time point when the aggregation starts) (human amylin (hIAPP) [2]): 13.13 ± 1.09 h
t 1/2 (aggregation halftime) (human amylin (hIAPP) [2]): 21.25 ± 0.20 h
t 1 (aggregation endpoint) (human amylin (hIAPP) [2]): 29.48 ± 1.02 h
k (human amylin (hIAPP) [2]): 0.2687 ± 0.0374 h^–1
k e (elongation constant) (human amylin (hIAPP) [2]): 17913 ± 2489 M^–1h^–1
k n (nucleation constant) (human amylin (hIAPP) [2]): 0.0010 ± 0.0006 h^–1
ρ (ratio of kn to k) (human amylin (hIAPP) [2]): 0.0040 ± 0.0028
IC50 (human amylin (hIAPP) [3]): 3.65 µM

CC(C)(C)c1cccc(CNCC(O)CCNCC(c2ccccc2)c2ccccc2)c1 (stereo not drawn) [Compound 21]
ThT inhibition % (mean ± SEM) (human amylin (hIAPP) [1]): 90.8 ± 1.4%
inhibition at 10 µM (human amylin (hIAPP) [1]): > 88%
inhibition at 10 µM (human amylin (hIAPP) [4]): 99.2 ± 6%
t 0 (time point when the aggregation starts) (human amylin (hIAPP) [2]): 9.54 ± 0.29 h
t 1/2 (aggregation halftime) (human amylin (hIAPP) [2]): 18.66 ± 0.56 h
t 1 (aggregation endpoint) (human amylin (hIAPP) [2]): 28.19 ± 1.42 h
k (human amylin (hIAPP) [2]): 0.2273 ± 0.0221 h^–1
k e (elongation constant) (human amylin (hIAPP) [2]): 15155 M^–1h^–1 and 15155 ± 1477 M^–1h^–1
k n (nucleation constant) (human amylin (hIAPP) [2]): 0.003 h^–1 and 0.0032 ± 0.0007 h^–1
ρ (ratio of kn to k) (human amylin (hIAPP) [2]): 0.0145 ± 0.0044
cell viability difference versus the sample with amylin fibrils (Pancreatic INS-1E cells; INS-1E cells 24 h, amylin aggregates aged 36 h with 2.92 μM compound 18 or 3.31 μM compound 21): approximately 30 % points
effect on INS-1E cell viability in presence of amylin (Pancreatic INS-1E cells; INS-1E cells cultured with the MTDLs): retained cell viability
IC50 (human amylin (hIAPP) [3]): 3.53 µM

COc1ccc(CNCC(O)CN2CCN(c3ccccc3)CC2)cc1 (stereo not drawn) [Compound 2]
inhibition at 10 µM (human amylin (hIAPP) [1]): 5 ± 0.7%
inhibition at 10 µM (human amylin (hIAPP) [4]): 6.9 ± 0.5%

COc1ccc(CNCC(O)CCN2CCN(c3ccccc3)CC2)cc1 (stereo not drawn) [Compound 9]
inhibition at 10 µM (human amylin (hIAPP) [1]): 4.3 ± 0.7%
inhibition at 10 µM (human amylin (hIAPP) [4]): 10 ± 0.5%

CCCC(C)N1CCN(CCC(O)CNCc2ccc(OC)cc2)CC1 (stereo not drawn) [Compound 8]
inhibition at 10 µM (human amylin (hIAPP) [1]): 20.8 ± 1%
inhibition at 10 µM (human amylin (hIAPP) [4]): 20.1 ± 2%

COc1ccc(CNCC(O)CN2CCN(C(c3ccccc3)c3ccccc3)CC2)cc1 (stereo not drawn) [Compound 5]
inhibition at 10 µM (human amylin (hIAPP) [1]): 12.1 ± 1.1%
inhibition at 10 µM (human amylin (hIAPP) [4]): 19.5 ± 2.2%

CCCC(C)N1CCN(CC(O)CNCc2ccc(OC)cc2)CC1 (stereo not drawn) [Compound 1]
inhibition at 10 µM (human amylin (hIAPP) [1]): 13.1 ± 1.8%
inhibition at 10 µM (human amylin (hIAPP) [4]): 19.7 ± 2%

OC(CNCc1ccccc1)CNCC(c1ccccc1)c1ccccc1 (stereo not drawn) [Compound 15]
inhibition at 10 µM (human amylin (hIAPP) [1]): 37.4 ± 0.4%
inhibition at 10 µM (human amylin (hIAPP) [4]): 25 ± 2.5%

COc1ccc(CNCC(O)CCN2CCN(Cc3ccccc3)CC2)cc1 (stereo not drawn) [Compound 10]
inhibition at 10 µM (human amylin (hIAPP) [1]): 31.1 ± 0.9%
inhibition at 10 µM (human amylin (hIAPP) [4]): 27.8 ± 3%

COc1ccc(CNCC(O)CN2CCN(C(c3ccc(F)cc3)c3ccc(F)cc3)CC2)cc1 (stereo not drawn) [Compound 7]
inhibition at 10 µM (human amylin (hIAPP) [1]): 17 ± 0.7%
inhibition at 10 µM (human amylin (hIAPP) [4]): 18.6 ± 1.4%

COc1ccc(CNCC(O)CN2CCN(Cc3ccccc3)CC2)cc1 (stereo not drawn) [Compound 3]
inhibition at 10 µM (human amylin (hIAPP) [1]): 8.8 ± 4.9%
inhibition at 10 µM (human amylin (hIAPP) [4]): 17.9 ± 1.4%

COc1ccc(CNCC(O)CCN2CCN(C(c3ccc(F)cc3)c3ccc(F)cc3)CC2)cc1 (stereo not drawn) [Compound 14]
inhibition at 10 µM (human amylin (hIAPP) [1]): 5 ± 4.4%
inhibition at 10 µM (human amylin (hIAPP) [4]): 7.8 ± 0.5%

OC(CCN1CCN(C(c2ccccc2)c2ccccc2)CC1)CNCc1ccccc1 (stereo not drawn) [Compound 11]
inhibition at 10 µM (human amylin (hIAPP) [1]): 20.8 ± 0.8%
inhibition at 10 µM (human amylin (hIAPP) [4]): 19 ± 1.8%

OC(CNCCC(c1ccccc1)c1ccccc1)CNCc1ccccc1 (stereo not drawn) [Compound 16]
inhibition at 10 µM (human amylin (hIAPP) [1]): 58.8 ± 0.7%
average particle size of amylin by DLS (human amylin (hIAPP) [4]; amylin + compound): 10 nm
inhibition at 10 µM (human amylin (hIAPP) [4]): 77.9 ± 6%
t 0 (time point when the aggregation starts) (human amylin (hIAPP) [2]): 11.03 ± 0.22 h
t 1/2 (aggregation halftime) (human amylin (hIAPP) [2]): 18.22 ± 0.28 h
t 1 (aggregation endpoint) (human amylin (hIAPP) [2]): 25.52 ± 0.37 h
k (human amylin (hIAPP) [2]): 0.2996 ± 0.0048 h^–1
k e (elongation constant) (human amylin (hIAPP) [2]): 19973 ± 320 M^–1h^–1
k n (nucleation constant) (human amylin (hIAPP) [2]): 0.0012 ± 0.0001 h^–1
ρ (ratio of kn to k) (human amylin (hIAPP) [2]): 0.0042 ± 0.0003
IC50 (human amylin (hIAPP) [3]): 3.1 µM

OC(CNCc1ccccc1)CN1CCN(C(c2ccccc2)c2ccccc2)CC1 (stereo not drawn) [Compound 4]
inhibition at 10 µM (human amylin (hIAPP) [1]): 15.5 ± 0.7%
inhibition at 10 µM (human amylin (hIAPP) [4]): 20 ± 1.9%

COc1ccc(CNCC(O)CCN2CCN(C(c3ccccc3)c3ccccc3)CC2)cc1 (stereo not drawn) [Compound 12]
inhibition at 10 µM (human amylin (hIAPP) [1]): 11.9 ± 0.7%
inhibition at 10 µM (human amylin (hIAPP) [4]): 20.7 ± 2%
